pEC50: −log10 of the molar value. Read-outs that look alike come from different tables or passages of the source. Peptide text beside a SMILES is read from it.
What was measured:
Assay type in all cases: cell-based
[1] = target: T1, FGFR1c and co-receptor beta-Klotho (KLB) (Homo sapiens, UniProt P11362+Q86Z14); test: Luciferase reporter gene assay (iLite FGF21 Assay Ready Cells), FGF21-like signaling; conditions: monovalent Fab versus bivalent antibody
T1 construct: host or cells: iLite FGF21 Assay Ready Cells (HEK293)

[2] = target: T2, human GIP receptor (Homo sapiens, UniProt P48546); test: HTRF cAMP assay in HEK-293 cells expressing human GIP receptor
T2 construct: expressed in transfected cells; host or cells: PSC-HEK-293
T2 sequence (P48546 22-466): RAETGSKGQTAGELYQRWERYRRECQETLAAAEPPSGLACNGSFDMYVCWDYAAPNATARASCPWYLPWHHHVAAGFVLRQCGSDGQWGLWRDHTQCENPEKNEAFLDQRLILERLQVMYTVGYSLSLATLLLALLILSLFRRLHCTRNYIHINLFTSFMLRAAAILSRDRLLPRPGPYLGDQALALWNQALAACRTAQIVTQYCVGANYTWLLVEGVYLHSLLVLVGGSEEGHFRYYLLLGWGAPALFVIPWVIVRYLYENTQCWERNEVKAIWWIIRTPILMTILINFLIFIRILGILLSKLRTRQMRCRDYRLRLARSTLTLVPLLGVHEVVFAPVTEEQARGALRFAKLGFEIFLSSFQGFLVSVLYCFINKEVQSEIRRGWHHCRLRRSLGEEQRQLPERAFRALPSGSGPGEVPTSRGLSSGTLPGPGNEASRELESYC

[3] = target: T3, human GLP-1 receptor (Homo sapiens, UniProt P43220); test: HTRF cAMP assay in HEK-293 cells expressing human GLP-1 receptor
T3 construct: expressed in transfected cells; host or cells: PSC-HEK-293

[4] = target: T4, human glucagon (GCG) receptor (Homo sapiens, UniProt P47871); test: HTRF cAMP assay in HEK-293 cells expressing human glucagon receptor
T4 construct: expressed in transfected cells; host or cells: PSC-HEK-293

[5] = HEK-293 cells, read-out: HTRF cAMP EC50 Human GIPR
[6] = HEK-293 cells, read-out: HTRF cAMP EC50 Human GLP-1R
[7] = HEK-293 cells, read-out: HTRF cAMP EC50 Human GCGR

T3 sequence (P43220 24-463): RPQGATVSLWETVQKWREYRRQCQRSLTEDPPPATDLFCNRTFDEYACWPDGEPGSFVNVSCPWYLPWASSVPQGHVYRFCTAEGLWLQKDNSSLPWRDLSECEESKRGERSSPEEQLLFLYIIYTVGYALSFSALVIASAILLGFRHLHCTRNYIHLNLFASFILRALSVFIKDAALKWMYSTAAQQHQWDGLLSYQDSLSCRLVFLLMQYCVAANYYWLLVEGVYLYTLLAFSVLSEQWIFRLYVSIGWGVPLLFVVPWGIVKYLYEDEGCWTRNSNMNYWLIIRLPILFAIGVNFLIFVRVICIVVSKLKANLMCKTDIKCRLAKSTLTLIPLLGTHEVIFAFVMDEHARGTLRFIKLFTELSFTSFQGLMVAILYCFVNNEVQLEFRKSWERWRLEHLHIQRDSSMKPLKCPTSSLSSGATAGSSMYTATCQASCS
T4 sequence (P47871 26-477): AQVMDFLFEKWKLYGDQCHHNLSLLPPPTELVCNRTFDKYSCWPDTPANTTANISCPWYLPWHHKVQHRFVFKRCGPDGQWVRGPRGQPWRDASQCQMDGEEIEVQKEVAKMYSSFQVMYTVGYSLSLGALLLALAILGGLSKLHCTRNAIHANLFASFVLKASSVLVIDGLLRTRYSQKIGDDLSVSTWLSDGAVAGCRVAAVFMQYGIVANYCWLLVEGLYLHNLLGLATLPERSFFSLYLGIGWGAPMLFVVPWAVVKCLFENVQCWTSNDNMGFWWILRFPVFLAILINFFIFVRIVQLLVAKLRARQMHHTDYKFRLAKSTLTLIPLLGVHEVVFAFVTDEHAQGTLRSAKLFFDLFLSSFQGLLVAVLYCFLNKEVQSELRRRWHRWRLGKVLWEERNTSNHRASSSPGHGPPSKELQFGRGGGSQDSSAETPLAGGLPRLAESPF
T1 sequence (Q86Z14 53-1044 limits assumed): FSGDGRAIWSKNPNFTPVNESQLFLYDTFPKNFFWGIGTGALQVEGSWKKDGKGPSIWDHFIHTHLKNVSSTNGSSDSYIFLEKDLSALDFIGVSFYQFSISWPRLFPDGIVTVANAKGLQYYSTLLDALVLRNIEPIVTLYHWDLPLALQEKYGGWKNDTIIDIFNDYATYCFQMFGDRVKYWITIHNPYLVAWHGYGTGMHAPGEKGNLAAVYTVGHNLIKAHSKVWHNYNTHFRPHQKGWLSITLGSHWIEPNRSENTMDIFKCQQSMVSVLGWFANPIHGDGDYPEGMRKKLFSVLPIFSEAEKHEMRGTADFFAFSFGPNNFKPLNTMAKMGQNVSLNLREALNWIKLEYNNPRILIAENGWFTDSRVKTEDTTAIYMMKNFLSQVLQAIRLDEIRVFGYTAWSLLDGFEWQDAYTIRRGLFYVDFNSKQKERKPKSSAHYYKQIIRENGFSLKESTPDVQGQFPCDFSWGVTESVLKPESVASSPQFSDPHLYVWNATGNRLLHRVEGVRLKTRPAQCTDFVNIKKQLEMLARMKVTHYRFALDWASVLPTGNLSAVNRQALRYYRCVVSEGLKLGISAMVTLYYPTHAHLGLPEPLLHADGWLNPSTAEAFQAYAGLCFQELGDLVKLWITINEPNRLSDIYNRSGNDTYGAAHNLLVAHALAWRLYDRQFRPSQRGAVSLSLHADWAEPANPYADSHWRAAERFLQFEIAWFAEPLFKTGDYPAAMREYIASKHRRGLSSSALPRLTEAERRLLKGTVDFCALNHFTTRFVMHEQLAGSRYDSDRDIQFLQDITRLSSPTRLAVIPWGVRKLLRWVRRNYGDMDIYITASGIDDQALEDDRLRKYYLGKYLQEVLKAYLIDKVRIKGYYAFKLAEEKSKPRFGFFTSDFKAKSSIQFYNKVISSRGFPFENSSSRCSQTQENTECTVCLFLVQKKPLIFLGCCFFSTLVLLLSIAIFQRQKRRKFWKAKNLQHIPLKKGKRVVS
T1 sequence (P11362 22-820 isoform P11362-2 limits assumed): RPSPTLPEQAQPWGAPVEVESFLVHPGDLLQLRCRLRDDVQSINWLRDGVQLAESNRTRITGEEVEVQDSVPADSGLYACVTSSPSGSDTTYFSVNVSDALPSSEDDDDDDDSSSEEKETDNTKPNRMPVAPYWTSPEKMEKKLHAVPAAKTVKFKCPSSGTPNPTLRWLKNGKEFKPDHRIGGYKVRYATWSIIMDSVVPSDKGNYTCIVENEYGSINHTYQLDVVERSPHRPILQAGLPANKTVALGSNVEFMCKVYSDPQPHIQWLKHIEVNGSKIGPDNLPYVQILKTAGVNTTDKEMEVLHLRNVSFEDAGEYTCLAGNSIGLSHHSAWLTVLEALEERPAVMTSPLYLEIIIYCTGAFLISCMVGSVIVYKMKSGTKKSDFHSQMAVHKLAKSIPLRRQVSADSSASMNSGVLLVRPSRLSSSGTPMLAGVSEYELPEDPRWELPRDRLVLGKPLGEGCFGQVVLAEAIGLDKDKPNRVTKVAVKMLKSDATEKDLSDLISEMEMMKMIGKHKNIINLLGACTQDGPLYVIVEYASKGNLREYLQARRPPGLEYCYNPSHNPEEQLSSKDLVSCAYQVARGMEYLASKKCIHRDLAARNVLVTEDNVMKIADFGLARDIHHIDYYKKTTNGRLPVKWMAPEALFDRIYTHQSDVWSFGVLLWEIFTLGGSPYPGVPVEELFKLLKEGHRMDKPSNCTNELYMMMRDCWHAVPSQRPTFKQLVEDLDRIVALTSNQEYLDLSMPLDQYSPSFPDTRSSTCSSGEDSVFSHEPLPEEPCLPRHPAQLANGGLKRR

| Compound | FGF21-like activity in Luciferase gene reporter assay (in words) [1] | pEC50 [2] | pEC50 [3] | pEC50 [4] | pEC50 [2, 5] | pEC50 [3, 6] | pEC50 [4, 7] |
| --- | --- | --- | --- | --- | --- | --- | --- |
| 16H7-Fab: monovalent Fab fragment (antigen-binding fragment) of 16H7 [Ab 16H7-Fab, reference compound] | inactive |  |  |  |  |  |  |
| CC[C@H](C)[C@H](NC(=O)[C@H](Cc1ccccc1)NC(=O)[C@H](CC(C)C)NC(=O)[C@H](CCCNC(=N)N)NC(=O)[C@@H](NC(=O)[C@H](C)NC(=O)[C@H](CCC(=O)O)NC(=O)[C@H](CCC(=O)O)NC(=O)[C@H](CCC(=O)O)NC(=O)[C@H](CC(C)C)NC(=O)[C@H](CCC(N)=O)NC(=O)[C@H](CCCCN)NC(=O)[C@H](CO)NC(=O)[C@H](CC(C)C)NC(=O)[C@H](CC(=O)O)NC(=O)[C@H](CO)NC(=O)[C@@H](NC(=O)[C@H](Cc1ccccc1)NC(=O)[C@@H](NC(=O)CNC(=O)[C@H](CCC(=O)O)NC(=O)CNC(=O)[C@H](Cc1c[nH]cn1)NC(=O)CN)[C@@H](C)O)[C@@H](C)O)C(C)C)C(=O)N[C@@H](CCC(=O)O)C(=O)N[C@@H](Cc1c[nH]c2ccccc12)C(=O)N[C@@H](CC(C)C)C(=O)N[C@@H](CCCCN)C(=O)N[C@@H](C)C(=O)NCC(=O)NCC(=O)N1CCC[C@H]1C(=O)N[C@@H](CCCCN)C(=O)N[C@@H](CCCCN)C(=O)N[C@H](C(=O)N[C@@H](CCCNC(=N)N)C(=O)N[C@@H](Cc1ccc(O)cc1)C(=O)N[C@@H](CO)C(N)=O)[C@@H](C)CC [Ab P013] (H-GHGEGTFTSDLSKQLEEEAVRLFIEWLKAGGPKKIRYS-NH2) |  | < 8.00 | 11.00 | < 8.00 |  |  |  |
| CC[C@H](C)[C@H](NC(=O)[C@H](Cc1ccccc1)NC(=O)[C@H](CC(C)C)NC(=O)[C@H](CCCNC(=N)N)NC(=O)[C@H](CCC(N)=O)NC(=O)[C@H](CC(C)C)NC(=O)[C@H](CCCNC(=N)N)NC(=O)[C@H](CCCCN)NC(=O)[C@H](CCC(=O)O)NC(=O)[C@H](CC(C)C)NC(=O)[C@H](CCC(N)=O)NC(=O)[C@H](CCCCN)NC(=O)[C@H](CO)NC(=O)[C@H](CC(C)C)NC(=O)[C@H](CC(=O)O)NC(=O)[C@H](CO)NC(=O)[C@@H](NC(=O)[C@H](Cc1ccccc1)NC(=O)[C@@H](NC(=O)CNC(=O)[C@H](CCC(=O)O)NC(=O)CNC(=O)[C@@H](N)Cc1c[nH]cn1)[C@@H](C)O)[C@@H](C)O)C(=O)N[C@@H](Cc1ccc(O)cc1)C(=O)N[C@@H](Cc1c[nH]c2ccccc12)C(=O)N[C@@H](CC(C)C)C(=O)N[C@@H](CCCCN)C(=O)N[C@@H](C)C(=O)NCC(=O)NCC(=O)N[C@@H](Cc1c[nH]cn1)C(=O)N[C@@H](CO)C(=O)N[C@@H](CO)C(=O)NCC(=O)N[C@@H](CCCCN)C(=O)N1CCC[C@H]1C(=O)N1CCC[C@H]1C(=O)N1CCC[C@H]1C(=O)N[C@@H](CCCCN)C(N)=O [Ab P026] (H-HGEGTFTSDLSKQLEKRLQRLFIYWLKAGGHSSGKPPPK-NH2; N-terminus assumed) |  |  |  |  | 8.61 | 11.70 | 8.41 |
| CC[C@H](C)[C@H](NC(=O)[C@H](Cc1ccccc1)NC(=O)[C@H](CC(C)C)NC(=O)[C@H](CCCNC(=N)N)NC(=O)[C@@H](NC(=O)[C@H](C)NC(=O)[C@H](CCC(=O)O)NC(=O)[C@H](CCC(=O)O)NC(=O)[C@H](CCC(=O)O)NC(=O)[C@H](CC(C)C)NC(=O)[C@H](CCC(N)=O)NC(=O)[C@H](CCCCN)NC(=O)[C@H](CO)NC(=O)[C@H](CCCCN)NC(=O)[C@H](CC(=O)O)NC(=O)[C@H](CO)NC(=O)[C@@H](NC(=O)[C@H](Cc1ccccc1)NC(=O)[C@@H](NC(=O)CNC(=O)[C@H](CCC(=O)O)NC(=O)CNC(=O)[C@H](Cc1c[nH]cn1)NC(=O)CN)[C@@H](C)O)[C@@H](C)O)C(C)C)C(=O)N[C@@H](C)C(=O)N[C@@H](Cc1c[nH]c2ccccc12)C(=O)N[C@@H](CC(C)C)C(=O)N[C@H](C(=O)N[C@@H](CCCCN)C(N)=O)C(C)C [Ab P040] (H-GHGEGTFTSDKSKQLEEEAVRLFIAWLVK-NH2; N-terminus assumed) |  |  |  |  | < 8.00 | 10.20 | < 8.00 |
| CC[C@H](C)[C@H](NC(=O)[C@H](Cc1ccccc1)NC(=O)[C@H](CC(C)C)NC(=O)[C@H](CCCNC(=N)N)NC(=O)[C@H](CCC(N)=O)NC(=O)[C@H](C)NC(=O)[C@H](CCC(=O)O)NC(=O)[C@H](CCC(=O)O)NC(=O)[C@H](CCC(=O)O)NC(=O)[C@H](CC(C)C)NC(=O)[C@H](CCC(N)=O)NC(=O)[C@H](CCCCN)NC(=O)[C@H](CO)NC(=O)[C@H](CC(C)C)NC(=O)[C@H](CC(=O)O)NC(=O)[C@H](CO)NC(=O)[C@@H](NC(=O)[C@H](Cc1ccccc1)NC(=O)[C@@H](NC(=O)CNC(=O)[C@H](CCC(=O)O)NC(=O)CNC(=O)[C@H](Cc1c[nH]cn1)NC(=O)CN)[C@@H](C)O)[C@@H](C)O)C(=O)N[C@@H](CCC(=O)O)C(=O)N[C@@H](Cc1c[nH]c2ccccc12)C(=O)N[C@@H](CC(C)C)C(=O)N[C@@H](CCCCN)C(=O)N[C@@H](C)C(=O)NCC(=O)NCC(=O)N1CCC[C@H]1C(=O)N[C@@H](CO)C(=O)N[C@@H](CO)C(=O)NCC(=O)N[C@@H](CCCCN)C(=O)N1CCC[C@H]1C(=O)N1CCC[C@H]1C(=O)N1CCC[C@H]1C(=O)N[C@@H](CCCCN)C(N)=O [Ab P036] (H-GHGEGTFTSDLSKQLEEEAQRLFIEWLKAGGPSSGKPPPK-NH2; N-terminus assumed) |  |  |  |  | < 8.00 | 9.90 | < 8.00 |
| CC[C@H](C)[C@H](NC(=O)[C@H](Cc1ccccc1)NC(=O)[C@H](CC(C)C)NC(=O)[C@H](CCC(N)=O)NC(=O)[C@@H](NC(=O)[C@H](C)NC(=O)[C@H](CCC(=O)O)NC(=O)[C@H](CCC(=O)O)NC(=O)[C@H](CCC(=O)O)NC(=O)[C@H](CC(C)C)NC(=O)[C@H](CCC(N)=O)NC(=O)[C@H](CCCCN)NC(=O)[C@H](CO)NC(=O)[C@H](CC(C)C)NC(=O)[C@H](CC(=O)O)NC(=O)[C@H](CO)NC(=O)[C@@H](NC(=O)[C@H](Cc1ccccc1)NC(=O)[C@@H](NC(=O)CNC(=O)[C@H](CCC(=O)O)NC(=O)CNC(=O)[C@H](Cc1c[nH]cn1)NC(=O)CN)[C@@H](C)O)[C@@H](C)O)C(C)C)C(=O)N[C@@H](CCC(=O)O)C(=O)N[C@@H](Cc1c[nH]c2ccccc12)C(=O)N[C@@H](CC(C)C)C(=O)N[C@@H](CCCCN)C(=O)N[C@@H](C)C(=O)NCC(=O)NCC(=O)N1CCC[C@H]1C(=O)N[C@@H](CCCCN)C(=O)N[C@@H](CCCCN)C(=O)N[C@H](C(=O)N[C@@H](CCCNC(=N)N)C(=O)N[C@@H](Cc1ccc(O)cc1)C(=O)N[C@@H](CO)C(N)=O)[C@@H](C)CC [Ab P015] (H-GHGEGTFTSDLSKQLEEEAVQLFIEWLKAGGPKKIRYS-NH2; N-terminus assumed) |  |  |  |  | < 8.00 | 10.81 | < 8.00 |

Reference: US20250115669A1, “FGFR1/KLB Targeting Agonistic Antigen-Binding Proteins and Conjugates Thereof with GLP-1R Agonistic Peptides” (SANOFI, priority 2020, published 2025)
